{"source": "ChEMBL document CHEMBL4342457", "about": "“Clerodane Diterpenoids Isolated from the Leaves of Casearia graveolens” (J Nat Prod, 2020)", "key": {"HepG2": {"system": "HepG2", "assay": "Cytotoxicity against human HepG2 cells after 48 hrs by MTT assay", "format": "functional, cell-based", "conditions": "HepG2, 48 h"}, "A549 [1]": {"system": "A549", "assay": "Cytotoxicity against human A549 cells after 48 hrs by MTT assay", "format": "functional, cell-based", "conditions": "A549, 48 h"}, "A549 [2]": {"system": "A549", "assay": "Induction of apoptosis human A549 cells assessed as late apoptotic cells at 2 uM after 48 hrs by Annexin V-FITC/PI double staining based flow cytometric analysis (reference value: 7.4%)", "format": "functional"}, "A549 [3]": {"system": "A549", "assay": "Induction of apoptosis human A549 cells assessed as early apoptotic cells at 2 uM after 48 hrs by Annexin V-FITC/PI double staining based flow cytometric analysis (reference value: 4.3%)", "format": "functional"}, "A549 [4]": {"system": "A549", "assay": "Induction of apoptosis human A549 cells assessed as live cells at 2 uM after 48 hrs by Annexin V-FITC/PI double staining based flow cytometric analysis (reference value: 88%)", "format": "functional"}, "A549 [5]": {"system": "A549", "assay": "Induction of apoptosis human A549 cells assessed as necrotic cells at 1 uM after 48 hrs by Annexin V-FITC/PI double staining based flow cytometric analysis (reference value: 0.3%)", "format": "functional"}, "A549 [6]": {"system": "A549", "assay": "Induction of apoptosis human A549 cells assessed as early apoptotic cells at 4 uM after 48 hrs by Annexin V-FITC/PI double staining based flow cytometric analysis (reference value: 4.3%)", "format": "functional"}, "A549 [7]": {"system": "A549", "assay": "Induction of cell cycle arrest in human A549 cells assessed as accumulation at G2 phase at 1.5 uM incubated for 48 hrs by propidium iodide staining based flow cytometry (reference value: 30.41%)", "format": "functional"}, "A549 [8]": {"system": "A549", "assay": "Induction of apoptosis human A549 cells assessed as necrotic cells at 4 uM after 48 hrs by Annexin V-FITC/PI double staining based flow cytometric analysis (reference value: 0.3%)", "format": "functional"}, "A549 [9]": {"system": "A549", "assay": "Induction of cell cycle arrest in human A549 cells assessed as accumulation at G1 phase at 2 uM incubated for 48 hrs by propidium iodide staining based flow cytometry (reference value: 29.60%)", "format": "functional"}, "A549 [10]": {"system": "A549", "assay": "Induction of apoptosis human A549 cells assessed as live cells at 4 uM after 48 hrs by Annexin V-FITC/PI double staining based flow cytometric analysis (reference value: 88%)", "format": "functional"}, "A549 [11]": {"system": "A549", "assay": "Induction of cell cycle arrest in human A549 cells assessed as accumulation at S phase at 1 uM incubated for 48 hrs by propidium iodide staining based flow cytometry (reference value: 39.99%)", "format": "functional"}, "A549 [12]": {"system": "A549", "assay": "Induction of cell cycle arrest in human A549 cells assessed as accumulation at G2 phase at 2 uM incubated for 48 hrs by propidium iodide staining based flow cytometry (reference value: 30.41%)", "format": "functional"}, "A549 [13]": {"system": "A549", "assay": "Induction of cell cycle arrest in human A549 cells assessed as accumulation at G2 phase at 1 uM incubated for 48 hrs by propidium iodide staining based flow cytometry (reference value: 30.41%)", "format": "functional"}, "A549 [14]": {"system": "A549", "assay": "Induction of apoptosis human A549 cells after 48 hrs by Annexin V-FITC/PI double staining based flow cytometric analysis", "format": "functional, cell-based"}, "A549 [15]": {"system": "A549", "assay": "Induction of apoptosis human A549 cells assessed as live cells at 1 uM after 48 hrs by Annexin V-FITC/PI double staining based flow cytometric analysis (reference value: 88%)", "format": "functional"}, "A549 [16]": {"system": "A549", "assay": "Induction of apoptosis human A549 cells assessed as late apoptotic cells at 1 uM after 48 hrs by Annexin V-FITC/PI double staining based flow cytometric analysis (reference value: 7.4%)", "format": "functional"}, "A549 [17]": {"system": "A549", "assay": "Induction of apoptosis human A549 cells assessed as early apoptotic cells at 1 uM after 48 hrs by Annexin V-FITC/PI double staining based flow cytometric analysis (reference value: 4.3%)", "format": "functional"}, "A549 [18]": {"system": "A549", "assay": "Induction of cell cycle arrest in human A549 cells assessed as accumulation at S phase at 1.5 uM incubated for 48 hrs by propidium iodide staining based flow cytometry (reference value: 39.99%)", "format": "functional"}, "A549 [19]": {"system": "A549", "assay": "Induction of cell cycle arrest in human A549 cells assessed as accumulation at G1 phase at 1.5 uM incubated for 48 hrs by propidium iodide staining based flow cytometry (reference value: 29.60%)", "format": "functional"}, "A549 [20]": {"system": "A549", "assay": "Induction of apoptosis human A549 cells assessed as late apoptotic cells at 4 uM after 48 hrs by Annexin V-FITC/PI double staining based flow cytometric analysis (reference value: 7.4%)", "format": "functional"}, "A549 [21]": {"system": "A549", "assay": "Induction of apoptosis human A549 cells assessed as necrotic cells at 2 uM after 48 hrs by Annexin V-FITC/PI double staining based flow cytometric analysis (reference value: 0.3%)", "format": "functional"}, "A549 [22]": {"system": "A549", "assay": "Induction of cell cycle arrest in human A549 cells assessed as accumulation at G1 phase at 1 uM incubated for 48 hrs by propidium iodide staining based flow cytometry (reference value: 29.60%)", "format": "functional"}, "A549 [23]": {"system": "A549", "assay": "Induction of cell cycle arrest in human A549 cells assessed as accumulation at S phase at 2 uM incubated for 48 hrs by propidium iodide staining based flow cytometry (reference value: 39.99%)", "format": "functional"}}, "data": [{"compound": "C=C/C(C)=C/C[C@]1(C)[C@H](C)C[C@H](O)[C@@]23C(=C[C@@H](OC(=O)C(C)CC)C[C@@H]12)[C@@H](OC)O[C@H]3OC(C)=O", "note": "(some centres not stated)", "values": [{"measurement": "IC50", "setting": "HepG2", "value": "> 10", "unit": "µM"}, {"measurement": "IC50", "setting": "A549 [1]", "value": "> 10", "unit": "µM"}]}, {"compound": "C=C/C(C)=C/C[C@]1(C)[C@H](C)C[C@H](O)[C@@]23C(=C[C@H](OC(=O)C(C)C)C[C@@H]12)[C@@H](OC)O[C@@H]3OC(C)=O", "values": [{"measurement": "IC50", "setting": "HepG2", "value": "> 10", "unit": "µM"}, {"measurement": "IC50", "setting": "A549 [1]", "value": "> 10", "unit": "µM"}]}, {"compound": "C=C/C(C)=C/C[C@]1(C)[C@H](C)C[C@H](O)[C@@]23C(=C[C@H](OC(=O)CC(C)C)C[C@@H]12)[C@@H](OC)O[C@H]3OC(C)=O", "values": [{"measurement": "IC50", "setting": "HepG2", "value": "> 10", "unit": "µM"}, {"measurement": "IC50", "setting": "A549 [1]", "value": "> 10", "unit": "µM"}]}, {"compound": "C=C/C(C)=C/C[C@]1(C)[C@H](C)C[C@H](O)[C@@]23C(=C[C@H](OC(=O)CC(C)C)C[C@@H]12)[C@@H](OC(C)=O)O[C@H]3OC(C)=O", "values": [{"measurement": "Activity", "setting": "A549 [2]", "value": 19.9, "unit": "%"}, {"measurement": "Activity", "setting": "A549 [3]", "value": 26.7, "unit": "%"}, {"measurement": "Activity", "setting": "A549 [4]", "value": 52.7, "unit": "%"}, {"measurement": "Activity", "setting": "A549 [5]", "value": 1.1, "unit": "%"}, {"measurement": "Activity", "setting": "A549 [6]", "value": 15, "unit": "%"}, {"measurement": "Activity", "setting": "A549 [7]", "value": 4.3, "unit": "%"}, {"measurement": "IC50", "setting": "HepG2", "value": 4.6, "unit": "µM"}, {"measurement": "Activity", "setting": "A549 [8]", "value": 5.1, "unit": "%"}, {"measurement": "Activity", "setting": "A549 [9]", "value": 79.44, "unit": "%"}, {"measurement": "Activity", "setting": "A549 [10]", "value": 5.4, "unit": "%"}, {"measurement": "Activity", "setting": "A549 [11]", "value": 20.75, "unit": "%"}, {"measurement": "Activity", "setting": "A549 [12]", "value": 5.19, "unit": "%"}, {"measurement": "Activity", "setting": "A549 [13]", "value": 9.01, "unit": "%"}, {"measurement": "Activity", "setting": "A549 [14]", "value": "Dose-dependent effect"}, {"measurement": "Activity", "setting": "A549 [15]", "value": 74.5, "unit": "%"}, {"measurement": "Activity", "setting": "A549 [16]", "value": 18.2, "unit": "%"}, {"measurement": "Activity", "setting": "A549 [17]", "value": 6.2, "unit": "%"}, {"measurement": "Activity", "setting": "A549 [18]", "value": 25.39, "unit": "%"}, {"measurement": "Activity", "setting": "A549 [19]", "value": 70.31, "unit": "%"}, {"measurement": "Activity", "setting": "A549 [20]", "value": 74.5, "unit": "%"}, {"measurement": "Activity", "setting": "A549 [21]", "value": 0.8, "unit": "%"}, {"measurement": "Activity", "setting": "A549 [22]", "value": 70.25, "unit": "%"}, {"measurement": "Activity", "setting": "A549 [23]", "value": 15.37, "unit": "%"}, {"measurement": "IC50", "setting": "A549 [1]", "value": 1.9, "unit": "µM"}]}, {"compound": "C=C/C(C)=C/C[C@]1(C)[C@H](C)C[C@H](O)[C@@]23C(=C[C@H](OC(=O)C(C)C)C[C@@H]12)[C@@H](OC)O[C@H]3OC", "values": [{"measurement": "IC50", "setting": "HepG2", "value": "> 10", "unit": "µM"}, {"measurement": "IC50", "setting": "A549 [1]", "value": "> 10", "unit": "µM"}]}, {"compound": "C=C/C(C)=C/C[C@]1(C)[C@H](C)C[C@H](O)[C@@]23C(=C[C@H](OC(=O)C(C)C)C[C@@H]12)[C@@H](OC)O[C@H]3OC(C)=O", "values": [{"measurement": "IC50", "setting": "HepG2", "value": "> 10", "unit": "µM"}, {"measurement": "IC50", "setting": "A549 [1]", "value": "> 10", "unit": "µM"}]}, {"compound": "C=C/C(C)=C/C[C@]1(C)[C@H](C)C[C@H](O)[C@@]23C(=C[C@@H](OC(C)=O)C[C@@H]12)[C@@H](OC)O[C@H]3OC(C)=O", "values": [{"measurement": "IC50", "setting": "HepG2", "value": "> 10", "unit": "µM"}, {"measurement": "IC50", "setting": "A549 [1]", "value": "> 10", "unit": "µM"}]}, {"compound": "C=C/C(C)=C/C[C@]1(C)[C@H](C)C[C@H](O)[C@@]23C(=C[C@H](OC(=O)C(C)CC)C[C@@H]12)[C@@H](OC)O[C@H]3OC(C)=O", "note": "(some centres not stated)", "values": [{"measurement": "IC50", "setting": "HepG2", "value": "> 10", "unit": "µM"}, {"measurement": "IC50", "setting": "A549 [1]", "value": "> 10", "unit": "µM"}]}, {"compound": "C=C/C(C)=C/C[C@]1(C)[C@H](C)C[C@H](O)[C@@]23C(=C[C@H](OC(=O)CC(C)C)C[C@@H]12)[C@@H](OC)O[C@H]3OC", "values": [{"measurement": "IC50", "setting": "HepG2", "value": "> 10", "unit": "µM"}, {"measurement": "IC50", "setting": "A549 [1]", "value": "> 10", "unit": "µM"}]}, {"compound": "COC(=O)C[C@](O)(CCCC(C)(C)O)C(=O)O[C@@H]1C(OC)=C[C@]23CCCN2CCc2cc4c(cc2[C@H]13)OCO4", "note": "[OMACETAXINE MEPESUCCINATE]", "values": [{"measurement": "IC50", "setting": "HepG2", "value": 0.0345, "unit": "µM"}, {"measurement": "IC50", "setting": "A549 [1]", "value": 0.0316, "unit": "µM"}]}]}
